How the values were obtained:
[1] = test system: clinical isolates of DENV1-4; settings: across four serotypes; cited from earlier work
[2] = target: T1, DENV1 FL NS5 (Dengue virus type 1, UniProt P17763); settings: read-out: DENV FL NS5 de novo initiation FAPA, IC50, DENV1; cited from earlier work
T1 construct: 100 nM DENV FL NS5 protein was added; made in house

[3] = test system: clinical DENV2 isolate MY97-10340; assay: DENV2 infected A549 cells, high content imaging (HCI); type: cell-based; settings: Dengue virus, 48 hr
Method: (§1) 2 Co mpound testing with DENV dn I FAPA assays. Final dn I assa y reaction mixtures
(§2) 3 contained 100 nM DENV 5 ´UTR-L-3´UTR IVT RNA, 20 µ M ATP, 20 µM GTP, 20 µM
(§3) 4 UTP, 5 µM ATTO -CTP, and 100 nM of DENV FL NS5 protein in 15 µl in assa y buffer
(§4) 5 comprising 50 mM Tris/ HCl, pH 7.5, 10 mM KCl, 1 mM MgCl2, 0.3 mM MnCl2 (DENV2
(§5) 6 and 4) or 1 mM MnCl 2 (DENV1 and 3), 0.001% Triton- X-100 and 10 µ M cystein e [ 1] . To
(§6) 7 perform dose-respons e inhibition measurements, compounds from 0- 20 or - 100 µM
(§7) 8 concentr ations are two -fold seriall y diluted into 384-well black opaqu e plat es (Corning
(§8) 9 Costar), after which 100 nM DENV FL NS5 protein was added into resp ect ive wells. The
(§9) 10 plates wer e sealed, b riefl y shak en and centrif uged at 1500 rpm for 30 sec and incubated at RT
(§10) 11 for 15 min. Thereafter,RNA and ATTO -CTP, ATP, GTP and UTP were added to the wells to
(§11) 12 start the reactions. The pl ates wer e re-seal ed, shaken and centrifuged as before, followed b y
(§12) 13 incubation RT for 120 min. […]
(§13) 15 intestinal phosphatase (CIP), re- incubation at RT for 60 min and read on a Tecan Safire II
(§14) 16 microplate reader. […]
(§15) 8 DENV envelope protein ) and DRAQ5 (for nucl ear DNA) . Quantifications of DENV
(§16) 9 envelope protein were determined using the Opera high content imaging s ystem and anal ysis […]
(§17) 17 µM concentrations. At 48 hr of post-incubation, r enilla luciferas e activities were measured […]

[4] = test system: DENV1, strain MY97-10245; assay: DENV1 infected A549 cells, high content imaging (HCI); type: cell-based; settings: 48 hr
Method: as §1, §2, §3, §4, §5, §6, §7, §8, §9, §10, §11, §12, §13, §14, §15, §16, §17

[5] = test system: DENV4, strain MY01-22713; assay: DENV4 infected A549 cells, high content imaging (HCI); type: cell-based; settings: 48 hr
Method: as §1, §2, §3, §4, §5, §6, §7, §8, §9, §10, §11, §12, §13, §14, §15, §16, §17

[6] = test system: DENV3 strain MY05-34640; assay: DENV3 infected A549 cells, high content imaging (HCI); type: cell-based; settings: 48 hr
Method: as §1, §2, §3, §4, §5, §6, §7, §8, §9, §10, §11, §12, §13, §14, §15, §16, §17

[7] = target: T2, DENV4 FL NS5 (Dengue virus type 4, UniProt P09866); assay: biochemical; settings: Enzyme + compound 20 min, then ssRNA and nucleotides, 2 hr; averaged from ≥3 experiments; read-out: DENV FL NS5 de novo initiation FAPA, IC50, DENV4
T2 construct: 100 nM DENV FL NS5 protein was added; made in house
Method: DENV1-4 FL NS5 dnI assays were performed as described previously. Briefly, compounds from 0–20 or -100 μM concentrations are two-fold serially diluted into 384-well black opaque plates (Corning Costar), after which 100 nM DENV FL NS5 protein was added and the plates incubated at RT for 20 min. RNA and ATTO-CTP, ATP, GTP and UTP were then added and the plates incubated for another 120 min. […] For order-of-addition experiments, DENV4 FL NS5 was incubated for one hour at RT with RNA, ATP, and GTP or RNA, ATP, GTP and ATTO-CTP, followed by exposure to serially diluted compounds for 20 min at RT. The missing components (ATTO-CTP and UTP or UTP alone) were added and the reactions continued for 120 min after which STOP buffer was added as before. All datapoints were performed in duplicate wells. Each compound was tested at least twice.
as §1, §2, §3, §4, §5, §6, §7, §8, §9, §10, §11
13 incubation RT for 120 min.
as §13
16 microplate reader. For o r der-of-addition experiments, DENV4 FL NS5 was incubated for one
17 hour at RT with RNA, ATP, and GTP or RNA, ATP, GTP and ATTO-CTP, followed by
18 exposure to seriall y dilut ed compounds for 20 mi n at RT. The missing components (ATTO-
19 CTP and UTP or UTP alone) were added and the reactions continued for 120 min after which
20 STOP buffer was added as before. All datapoints were performed in duplicate wells. Each
21 compound was tested at l east twice. […]

[8] = target: T2, DENV4 FL NS5; type: biochemical

T2 sequence (P09866 2488-3387): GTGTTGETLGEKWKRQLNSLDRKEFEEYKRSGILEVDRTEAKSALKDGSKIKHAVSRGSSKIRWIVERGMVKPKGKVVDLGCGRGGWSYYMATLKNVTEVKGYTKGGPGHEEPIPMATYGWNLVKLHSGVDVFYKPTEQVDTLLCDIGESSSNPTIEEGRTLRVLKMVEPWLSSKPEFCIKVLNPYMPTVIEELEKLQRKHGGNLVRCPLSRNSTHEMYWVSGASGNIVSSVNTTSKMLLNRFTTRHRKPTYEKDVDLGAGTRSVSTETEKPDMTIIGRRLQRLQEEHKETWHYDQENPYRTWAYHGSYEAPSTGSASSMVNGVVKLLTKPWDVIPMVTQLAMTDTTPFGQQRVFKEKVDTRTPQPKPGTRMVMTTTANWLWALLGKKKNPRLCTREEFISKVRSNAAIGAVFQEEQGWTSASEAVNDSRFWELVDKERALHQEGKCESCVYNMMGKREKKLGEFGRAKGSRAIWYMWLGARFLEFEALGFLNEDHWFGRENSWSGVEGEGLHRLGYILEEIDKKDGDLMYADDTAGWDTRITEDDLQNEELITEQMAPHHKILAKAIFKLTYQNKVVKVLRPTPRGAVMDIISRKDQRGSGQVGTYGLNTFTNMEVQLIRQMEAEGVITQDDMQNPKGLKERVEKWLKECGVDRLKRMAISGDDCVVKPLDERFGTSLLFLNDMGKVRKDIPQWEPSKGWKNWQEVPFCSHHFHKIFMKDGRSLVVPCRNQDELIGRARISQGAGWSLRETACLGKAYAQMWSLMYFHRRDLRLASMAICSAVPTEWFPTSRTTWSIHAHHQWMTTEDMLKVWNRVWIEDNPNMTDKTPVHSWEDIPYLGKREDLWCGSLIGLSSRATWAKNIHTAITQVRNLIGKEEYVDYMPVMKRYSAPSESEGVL
T1 sequence (P17763 2494-3392): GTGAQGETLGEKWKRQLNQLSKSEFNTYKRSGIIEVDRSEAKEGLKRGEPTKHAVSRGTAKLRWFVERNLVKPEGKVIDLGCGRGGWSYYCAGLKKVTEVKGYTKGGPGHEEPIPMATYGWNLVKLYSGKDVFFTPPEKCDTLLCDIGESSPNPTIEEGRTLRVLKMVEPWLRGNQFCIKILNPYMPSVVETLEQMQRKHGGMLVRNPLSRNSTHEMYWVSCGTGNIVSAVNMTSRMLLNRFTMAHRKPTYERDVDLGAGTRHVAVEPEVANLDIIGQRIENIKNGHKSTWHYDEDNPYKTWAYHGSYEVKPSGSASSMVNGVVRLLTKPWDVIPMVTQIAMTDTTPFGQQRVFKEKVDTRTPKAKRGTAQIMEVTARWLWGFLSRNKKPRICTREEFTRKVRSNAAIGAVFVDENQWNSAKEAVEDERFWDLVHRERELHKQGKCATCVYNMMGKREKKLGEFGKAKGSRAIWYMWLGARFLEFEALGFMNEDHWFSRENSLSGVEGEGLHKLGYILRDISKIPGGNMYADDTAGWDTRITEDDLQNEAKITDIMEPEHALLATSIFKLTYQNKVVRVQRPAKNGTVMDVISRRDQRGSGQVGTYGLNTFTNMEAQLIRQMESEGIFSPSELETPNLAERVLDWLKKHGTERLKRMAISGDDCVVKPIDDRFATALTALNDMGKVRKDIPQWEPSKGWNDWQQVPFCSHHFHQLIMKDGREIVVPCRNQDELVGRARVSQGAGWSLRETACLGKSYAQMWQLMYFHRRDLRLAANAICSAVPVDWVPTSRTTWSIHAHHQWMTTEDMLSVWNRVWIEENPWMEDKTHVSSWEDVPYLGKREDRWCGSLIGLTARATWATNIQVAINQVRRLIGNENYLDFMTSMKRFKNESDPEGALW

## COc1cccc(S(=O)(=O)NC(=O)c2cc(-c3ccc(C#CCO)s3)c(OC)cc2OC)c1 [Compound 27]
[1]
  EC50: ~2 µM
[2]
  IC50: 0.068 µM

## COc1cccc(S(=O)(=O)NC(=O)c2cc(-c3ccc(C#CCO)s3)c(OC)cc2C)c1 [Compound 26i]
[3]
  EC50: 26.9 µM
[4]
  EC50: 15.2 µM
[5]
  EC50: 20.4 µM
[6]
  EC50: 16.8 µM
[7]
  IC50: 0.109 ± 0.061 µM

## COc1cc(OC)c(-c2ccc(C#CCO)s2)cc1C(=O)NS(=O)(=O)c1cccc2cccnc12 [Compound 29]
[8]; Lineweaver-Burk plots, 0–500 nM RNA
  mode of inhibition with respect to viral RNA substrate: uncompetitive
[8]; Lineweaver-Burk plots, 0–50 μM GTP
  mode of inhibition with respect to GTP: uncompetitive inhibition
[8]; high GTP concentrations
  mode of inhibition at high GTP concentrations: non-competitive mode of inhibition
